Source: ChEMBL document CHEMBL4507274 (2021)

Legend:
[1] = target: Mast/stem cell growth factor receptor Kit (Homo sapiens) (UniProt P10721); details: Compound concentration 100.0 nM
[2] = target: Serine/threonine-protein kinase D3 (Homo sapiens) (UniProt O94806); details: Compound concentration 100.0 nM
[3] = target: cGMP-dependent protein kinase 1 (Homo sapiens) (UniProt Q13976); details: Compound concentration 100.0 nM
[4] = target: Tyrosine-protein kinase SYK (Homo sapiens) (UniProt P43405); details: Compound concentration 100.0 nM
[5] = system: Phosphatidylinositol 4,5-bisphosphate 3-kinase catalytic subunit alpha isoform (Homo sapiens), P42336 [C420R]; details: Compound concentration 100.0 nM
[6] = target: Activin receptor type-2B (Homo sapiens) (UniProt Q13705); details: Compound concentration 100.0 nM
[7] = system: Tyrosine-protein kinase ABL1 (Homo sapiens), P00519 [F317L]; details: Compound concentration 100.0 nM
[8] = target: Megakaryocyte-associated tyrosine-protein kinase (Homo sapiens) (UniProt P42679); details: Compound concentration 100.0 nM
[9] = target: Histamine H4 receptor (Homo sapiens) (UniProt Q9H3N8); details: Compound concentration 10.0 uM
[10] = target: Tyrosine-protein kinase Fes/Fps (Homo sapiens) (UniProt P07332); details: Compound concentration 100.0 nM
[11] = target: Wee1-like protein kinase (Homo sapiens) (UniProt P30291); details: Compound concentration 100.0 nM
[12] = target: Serine/threonine-protein kinase OSR1 (Homo sapiens) (UniProt O95747); details: Compound concentration 100.0 nM
[13] = target: Cyclin-dependent kinase 4 (Homo sapiens) (UniProt P11802); details: Compound concentration 100.0 nM
[14] = target: Phosphatidylinositol 4,5-bisphosphate 3-kinase catalytic subunit gamma isoform (Homo sapiens) (UniProt P48736); details: Compound concentration 100.0 nM
[15] = target: Bone morphogenetic protein receptor type-1A (Homo sapiens) (UniProt P36894); details: Compound concentration 100.0 nM
[16] = target: Insulin receptor-related protein (Homo sapiens) (UniProt P14616); details: Compound concentration 100.0 nM
[17] = target: Serine/threonine-protein kinase 4 (Homo sapiens) (UniProt Q13043); details: Compound concentration 100.0 nM
[18] = target: Activin receptor type-1B (Homo sapiens) (UniProt P36896); details: Compound concentration 100.0 nM
[19] = target: T1, Mitogen-activated protein kinase 13 (Homo sapiens) (UniProt O15264); details: Compound concentration 100.0 nM
T1 sequence (whole entry): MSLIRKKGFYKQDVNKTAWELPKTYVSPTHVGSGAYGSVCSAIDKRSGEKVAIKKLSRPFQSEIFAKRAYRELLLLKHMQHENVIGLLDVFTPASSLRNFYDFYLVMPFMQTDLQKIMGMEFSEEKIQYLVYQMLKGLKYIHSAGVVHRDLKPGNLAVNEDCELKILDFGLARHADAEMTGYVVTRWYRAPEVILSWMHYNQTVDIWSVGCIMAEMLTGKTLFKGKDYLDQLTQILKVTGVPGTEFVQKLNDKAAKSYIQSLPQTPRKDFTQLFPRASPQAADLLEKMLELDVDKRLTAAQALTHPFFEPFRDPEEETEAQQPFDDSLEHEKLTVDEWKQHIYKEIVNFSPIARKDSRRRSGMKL

[20] = target: Alpha-1A adrenergic receptor (Homo sapiens) (UniProt P35348); details: Compound concentration 10.0 uM
[21] = target: Mitogen-activated protein kinase 8 (Homo sapiens) (UniProt P45983); details: Compound concentration 100.0 nM
[22] = target: Mast/stem cell growth factor receptor Kit (Homo sapiens) (UniProt P10721); details: Compound concentration 100.0 nM; remark: listed apart in the source
[23] = target: Serine/threonine-protein kinase DCLK2 (Homo sapiens) (UniProt Q8N568); details: Compound concentration 100.0 nM
[24] = target: Serine/threonine-protein kinase BRSK1 (Homo sapiens) (UniProt Q8TDC3); details: Compound concentration 100.0 nM
[25] = target: Serine/threonine-protein kinase pim-2 (Homo sapiens) (UniProt Q9P1W9); details: Compound concentration 100.0 nM
[26] = target: Casein kinase I isoform gamma-2 (Homo sapiens) (UniProt P78368); details: Compound concentration 100.0 nM
[27] = target: Receptor tyrosine-protein kinase erbB-2 (Homo sapiens) (UniProt P04626); details: Compound concentration 100.0 nM
[28] = target: Dual specificity tyrosine-phosphorylation-regulated kinase 1B (Homo sapiens) (UniProt Q9Y463); details: Compound concentration 100.0 nM
[29] = target: Dual specificity tyrosine-phosphorylation-regulated kinase 2 (Homo sapiens) (UniProt Q92630); details: Compound concentration 100.0 nM
[30] = target: T2, Dual specificity mitogen-activated protein kinase kinase 7 (Homo sapiens) (UniProt O14733); details: Compound concentration 100.0 nM
T2 sequence (whole entry): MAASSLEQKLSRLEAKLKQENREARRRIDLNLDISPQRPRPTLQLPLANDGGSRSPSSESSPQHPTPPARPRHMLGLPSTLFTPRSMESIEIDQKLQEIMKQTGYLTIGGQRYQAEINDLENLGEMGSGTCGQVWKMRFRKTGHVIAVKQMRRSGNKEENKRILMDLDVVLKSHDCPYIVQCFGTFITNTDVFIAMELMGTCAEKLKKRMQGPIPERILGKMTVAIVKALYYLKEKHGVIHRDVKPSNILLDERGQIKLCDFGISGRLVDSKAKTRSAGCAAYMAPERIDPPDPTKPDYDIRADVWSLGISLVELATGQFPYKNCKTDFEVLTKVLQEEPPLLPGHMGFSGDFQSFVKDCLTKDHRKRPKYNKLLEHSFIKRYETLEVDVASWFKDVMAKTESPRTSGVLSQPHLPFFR

[31] = target: MAP kinase-activated protein kinase 2 (Homo sapiens) (UniProt P49137); details: Compound concentration 100.0 nM
[32] = target: Serine/threonine-protein kinase PLK1 (Homo sapiens) (UniProt P53350); details: Compound concentration 100.0 nM
[33] = target: Tyrosine-protein kinase Tec (Homo sapiens) (UniProt P42680); details: Compound concentration 100.0 nM
[34] = system: Tyrosine-protein kinase ABL1 (Homo sapiens), P00519 [H396P]; details: Compound concentration 100.0 nM
[35] = target: Mitogen-activated protein kinase kinase kinase 14 (Homo sapiens) (UniProt Q99558); details: Compound concentration 100.0 nM

Mast/stem cell growth factor receptor Kit (Homo sapiens), sequence (P10721 whole entry): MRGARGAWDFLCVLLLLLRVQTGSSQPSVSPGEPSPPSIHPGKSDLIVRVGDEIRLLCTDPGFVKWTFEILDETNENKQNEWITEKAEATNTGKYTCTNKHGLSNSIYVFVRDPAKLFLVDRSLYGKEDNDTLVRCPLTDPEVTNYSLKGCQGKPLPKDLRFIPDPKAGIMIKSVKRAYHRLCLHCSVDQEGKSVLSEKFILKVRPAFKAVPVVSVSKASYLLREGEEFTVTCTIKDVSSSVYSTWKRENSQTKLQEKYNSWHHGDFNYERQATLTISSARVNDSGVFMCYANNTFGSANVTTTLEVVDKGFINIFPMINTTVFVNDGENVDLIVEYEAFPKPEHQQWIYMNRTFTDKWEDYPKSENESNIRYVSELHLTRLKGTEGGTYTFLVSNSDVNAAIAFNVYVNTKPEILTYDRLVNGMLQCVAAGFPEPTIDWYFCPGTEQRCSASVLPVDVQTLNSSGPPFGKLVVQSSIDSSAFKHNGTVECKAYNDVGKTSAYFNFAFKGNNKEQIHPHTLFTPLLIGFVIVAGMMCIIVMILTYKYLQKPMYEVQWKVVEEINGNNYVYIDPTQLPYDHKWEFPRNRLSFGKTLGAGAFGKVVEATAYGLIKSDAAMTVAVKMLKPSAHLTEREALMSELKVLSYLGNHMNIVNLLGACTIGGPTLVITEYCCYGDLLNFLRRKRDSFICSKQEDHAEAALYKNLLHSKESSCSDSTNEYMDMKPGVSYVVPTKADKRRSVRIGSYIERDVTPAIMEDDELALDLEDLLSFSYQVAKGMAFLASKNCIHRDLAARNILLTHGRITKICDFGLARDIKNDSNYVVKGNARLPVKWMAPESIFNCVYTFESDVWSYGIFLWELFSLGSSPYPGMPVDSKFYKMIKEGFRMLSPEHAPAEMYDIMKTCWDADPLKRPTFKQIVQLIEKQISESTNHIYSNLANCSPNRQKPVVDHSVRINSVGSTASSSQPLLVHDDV
Serine/threonine-protein kinase PLK1 (Homo sapiens), sequence (P53350 whole entry): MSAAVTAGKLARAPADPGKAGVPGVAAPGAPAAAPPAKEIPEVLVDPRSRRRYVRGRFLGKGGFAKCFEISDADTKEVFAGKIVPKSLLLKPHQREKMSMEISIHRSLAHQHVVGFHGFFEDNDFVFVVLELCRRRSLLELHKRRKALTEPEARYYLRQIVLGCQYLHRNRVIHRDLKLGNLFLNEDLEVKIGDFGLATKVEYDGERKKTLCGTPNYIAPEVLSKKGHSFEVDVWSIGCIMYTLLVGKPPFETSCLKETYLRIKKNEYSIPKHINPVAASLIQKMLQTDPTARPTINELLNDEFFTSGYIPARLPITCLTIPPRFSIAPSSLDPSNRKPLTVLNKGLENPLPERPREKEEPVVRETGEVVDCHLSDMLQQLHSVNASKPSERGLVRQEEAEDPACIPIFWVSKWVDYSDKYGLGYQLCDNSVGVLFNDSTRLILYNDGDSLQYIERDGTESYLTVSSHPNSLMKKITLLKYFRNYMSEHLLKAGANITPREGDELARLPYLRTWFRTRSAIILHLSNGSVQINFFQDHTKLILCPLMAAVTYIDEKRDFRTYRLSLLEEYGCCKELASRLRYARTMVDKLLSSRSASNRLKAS
Mitogen-activated protein kinase 8 (Homo sapiens), sequence (P45983 whole entry): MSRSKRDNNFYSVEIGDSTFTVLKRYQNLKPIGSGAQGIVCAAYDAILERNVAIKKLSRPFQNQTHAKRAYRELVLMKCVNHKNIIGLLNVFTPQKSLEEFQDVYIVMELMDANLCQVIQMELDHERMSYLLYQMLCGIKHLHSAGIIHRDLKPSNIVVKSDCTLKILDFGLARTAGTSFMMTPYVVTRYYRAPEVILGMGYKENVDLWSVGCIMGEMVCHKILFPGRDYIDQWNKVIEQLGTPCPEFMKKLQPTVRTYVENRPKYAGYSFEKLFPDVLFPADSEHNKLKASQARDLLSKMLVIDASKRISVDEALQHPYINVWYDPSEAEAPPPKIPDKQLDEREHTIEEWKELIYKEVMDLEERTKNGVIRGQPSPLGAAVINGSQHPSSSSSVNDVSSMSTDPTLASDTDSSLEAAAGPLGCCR
Tyrosine-protein kinase Fes/Fps (Homo sapiens), sequence (P07332 whole entry): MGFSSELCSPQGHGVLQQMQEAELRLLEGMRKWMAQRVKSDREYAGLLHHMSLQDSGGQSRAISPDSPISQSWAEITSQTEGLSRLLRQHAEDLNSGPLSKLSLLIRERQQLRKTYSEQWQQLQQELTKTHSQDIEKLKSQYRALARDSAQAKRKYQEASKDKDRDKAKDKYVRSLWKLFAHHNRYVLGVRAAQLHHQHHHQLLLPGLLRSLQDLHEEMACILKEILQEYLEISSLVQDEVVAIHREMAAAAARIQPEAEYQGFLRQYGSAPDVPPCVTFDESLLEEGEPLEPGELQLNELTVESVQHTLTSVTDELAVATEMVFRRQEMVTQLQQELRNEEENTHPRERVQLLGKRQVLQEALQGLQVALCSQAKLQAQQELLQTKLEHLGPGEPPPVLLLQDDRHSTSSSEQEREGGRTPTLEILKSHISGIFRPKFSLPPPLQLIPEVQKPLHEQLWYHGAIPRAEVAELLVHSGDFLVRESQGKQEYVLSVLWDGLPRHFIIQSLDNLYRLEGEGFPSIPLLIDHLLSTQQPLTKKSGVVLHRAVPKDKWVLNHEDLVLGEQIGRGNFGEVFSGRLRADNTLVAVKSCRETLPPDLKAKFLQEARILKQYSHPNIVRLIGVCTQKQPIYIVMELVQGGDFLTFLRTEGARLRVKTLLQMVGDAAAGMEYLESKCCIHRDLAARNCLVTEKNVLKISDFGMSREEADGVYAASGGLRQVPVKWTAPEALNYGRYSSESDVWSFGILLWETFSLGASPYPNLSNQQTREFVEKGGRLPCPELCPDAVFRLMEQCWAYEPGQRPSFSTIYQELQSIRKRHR
Serine/threonine-protein kinase DCLK2 (Homo sapiens), sequence (Q8N568 whole entry): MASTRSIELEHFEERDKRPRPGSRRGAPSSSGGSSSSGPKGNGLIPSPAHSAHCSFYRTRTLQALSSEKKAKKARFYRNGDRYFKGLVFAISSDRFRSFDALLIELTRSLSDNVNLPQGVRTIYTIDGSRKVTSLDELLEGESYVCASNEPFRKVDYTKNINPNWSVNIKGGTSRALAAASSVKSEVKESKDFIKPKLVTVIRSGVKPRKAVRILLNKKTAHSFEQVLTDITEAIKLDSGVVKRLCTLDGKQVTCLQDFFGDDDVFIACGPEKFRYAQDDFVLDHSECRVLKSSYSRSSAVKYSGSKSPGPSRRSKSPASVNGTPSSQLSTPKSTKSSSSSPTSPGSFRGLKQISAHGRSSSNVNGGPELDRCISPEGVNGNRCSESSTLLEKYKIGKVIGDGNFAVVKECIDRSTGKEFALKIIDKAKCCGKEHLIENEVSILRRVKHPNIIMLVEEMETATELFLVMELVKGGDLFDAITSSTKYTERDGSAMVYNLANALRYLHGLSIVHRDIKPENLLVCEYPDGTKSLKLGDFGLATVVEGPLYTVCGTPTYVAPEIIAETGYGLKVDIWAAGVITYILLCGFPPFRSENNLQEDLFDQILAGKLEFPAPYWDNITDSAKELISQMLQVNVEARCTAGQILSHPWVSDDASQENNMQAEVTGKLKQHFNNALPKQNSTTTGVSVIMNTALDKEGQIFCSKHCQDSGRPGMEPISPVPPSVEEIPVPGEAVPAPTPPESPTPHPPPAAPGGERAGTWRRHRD
cGMP-dependent protein kinase 1 (Homo sapiens), sequence (Q13976 whole entry): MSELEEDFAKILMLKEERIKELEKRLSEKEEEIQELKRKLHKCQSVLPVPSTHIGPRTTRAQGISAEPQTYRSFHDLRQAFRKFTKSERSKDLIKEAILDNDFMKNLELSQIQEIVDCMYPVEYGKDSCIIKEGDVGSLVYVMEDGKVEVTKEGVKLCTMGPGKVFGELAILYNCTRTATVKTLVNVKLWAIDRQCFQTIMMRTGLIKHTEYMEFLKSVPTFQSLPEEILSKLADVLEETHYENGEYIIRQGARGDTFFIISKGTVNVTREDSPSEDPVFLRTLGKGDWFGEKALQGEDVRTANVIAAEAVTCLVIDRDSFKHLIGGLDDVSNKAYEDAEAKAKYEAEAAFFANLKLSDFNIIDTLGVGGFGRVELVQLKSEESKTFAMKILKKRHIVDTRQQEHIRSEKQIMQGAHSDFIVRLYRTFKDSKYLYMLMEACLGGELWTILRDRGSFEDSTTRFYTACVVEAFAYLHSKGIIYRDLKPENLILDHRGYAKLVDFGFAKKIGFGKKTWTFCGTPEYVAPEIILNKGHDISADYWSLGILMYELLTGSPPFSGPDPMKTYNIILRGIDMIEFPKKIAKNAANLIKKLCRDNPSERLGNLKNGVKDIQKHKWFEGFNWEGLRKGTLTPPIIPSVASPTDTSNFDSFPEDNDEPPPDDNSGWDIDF
Tyrosine-protein kinase Tec (Homo sapiens), sequence (P42680 whole entry): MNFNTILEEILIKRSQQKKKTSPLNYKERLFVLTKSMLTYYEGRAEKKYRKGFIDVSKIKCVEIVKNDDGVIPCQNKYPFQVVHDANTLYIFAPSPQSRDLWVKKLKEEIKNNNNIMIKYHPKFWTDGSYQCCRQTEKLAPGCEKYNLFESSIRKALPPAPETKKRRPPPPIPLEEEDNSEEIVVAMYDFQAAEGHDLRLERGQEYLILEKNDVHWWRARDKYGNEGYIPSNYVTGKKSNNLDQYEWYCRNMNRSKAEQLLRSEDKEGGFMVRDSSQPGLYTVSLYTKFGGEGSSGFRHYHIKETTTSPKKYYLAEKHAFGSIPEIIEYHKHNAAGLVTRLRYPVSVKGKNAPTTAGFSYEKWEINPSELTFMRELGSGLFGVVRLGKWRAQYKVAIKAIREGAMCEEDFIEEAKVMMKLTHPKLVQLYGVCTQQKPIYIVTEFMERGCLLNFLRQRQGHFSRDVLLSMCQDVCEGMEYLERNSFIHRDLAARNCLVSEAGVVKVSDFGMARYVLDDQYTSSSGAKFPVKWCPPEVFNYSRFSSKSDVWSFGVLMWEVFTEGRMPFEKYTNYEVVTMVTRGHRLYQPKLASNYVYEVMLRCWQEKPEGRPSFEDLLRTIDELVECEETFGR

| Compound | residual activity [1] [%] | residual activity [2] [%] | residual activity [3] [%] | residual activity [4] [%] | residual activity [5] [%] | residual activity [6] [%] | residual activity [7] [%] | residual activity [8] [%] | inhibition [9] [%] | residual activity [10] [%] | residual activity [11] [%] | residual activity [12] [%] | residual activity [13] [%] | residual activity [14] [%] | residual activity [15] [%] | residual activity [16] [%] | residual activity [17] [%] | residual activity [18] [%] | residual activity [19] [%] | inhibition [20] [%] | other results |
| --- | --- | --- | --- | --- | --- | --- | --- | --- | --- | --- | --- | --- | --- | --- | --- | --- | --- | --- | --- | --- | --- |
| Cc1c[nH]c2nccc(Oc3c(F)cc(Nc4cc(Cl)nc(N)n4)cc3F)c12 [BAY-549] | 77 | 100 | 49 | 100 | 89 | 100 | 84 | 88 | -8.74 | 100 | 100 | 92 | 67 | 88 | 85 | 91 | 100 | 87 | 89 | -7.18 | residual activity [21]: 80%; residual activity [22]: 75%; residual activity [23]: 100%; residual activity [24]: 96%; residual activity [25]: 100%; residual activity [26]: 94%; residual activity [27]: 99%; residual activity [28]: 100%; residual activity [29]: 100%; residual activity [30]: 67%; residual activity [31]: 100%; residual activity [32]: 75%; residual activity [33]: 86%; residual activity [34]: 95%; residual activity [35]: 92% |
| Cn1cc(Cl)c2c(Oc3c(F)cc(Nc4cc(Cl)nc(N)n4)cc3F)ccnc21 [BAY-4900] | 78 | 100 | 83 | 100 | 82 | 79 | 94 | 97 | -9.04 | 100 | 91 | 93 | 85 | 82 | 95 | 100 | 94 | 98 | 95 | -5.31 | residual activity [21]: 76%; residual activity [22]: 95%; residual activity [23]: 100%; residual activity [24]: 100%; residual activity [25]: 88%; residual activity [26]: 83%; residual activity [27]: 95%; residual activity [28]: 82%; residual activity [29]: 100%; residual activity [30]: 84%; residual activity [31]: 100%; residual activity [32]: 83%; residual activity [33]: 100%; residual activity [34]: 95%; residual activity [35]: 100% |
